We go through 19 molecules from patent publication US12226412B2, “Heteroaryl-ketone fused azadecalin glucocorticoid receptor modulators” (Corcept Therapeutics, Inc., priority 2012, dated 2025).

Each structure is given as a SMILES string. pKi: −log10 of the molar value.

The target of one experiment is T1, human recombinant GR (Homo sapiens, UniProt P04150).
T1 construct: purchased PanVera P2812
T1 sequence (P04150 1-777): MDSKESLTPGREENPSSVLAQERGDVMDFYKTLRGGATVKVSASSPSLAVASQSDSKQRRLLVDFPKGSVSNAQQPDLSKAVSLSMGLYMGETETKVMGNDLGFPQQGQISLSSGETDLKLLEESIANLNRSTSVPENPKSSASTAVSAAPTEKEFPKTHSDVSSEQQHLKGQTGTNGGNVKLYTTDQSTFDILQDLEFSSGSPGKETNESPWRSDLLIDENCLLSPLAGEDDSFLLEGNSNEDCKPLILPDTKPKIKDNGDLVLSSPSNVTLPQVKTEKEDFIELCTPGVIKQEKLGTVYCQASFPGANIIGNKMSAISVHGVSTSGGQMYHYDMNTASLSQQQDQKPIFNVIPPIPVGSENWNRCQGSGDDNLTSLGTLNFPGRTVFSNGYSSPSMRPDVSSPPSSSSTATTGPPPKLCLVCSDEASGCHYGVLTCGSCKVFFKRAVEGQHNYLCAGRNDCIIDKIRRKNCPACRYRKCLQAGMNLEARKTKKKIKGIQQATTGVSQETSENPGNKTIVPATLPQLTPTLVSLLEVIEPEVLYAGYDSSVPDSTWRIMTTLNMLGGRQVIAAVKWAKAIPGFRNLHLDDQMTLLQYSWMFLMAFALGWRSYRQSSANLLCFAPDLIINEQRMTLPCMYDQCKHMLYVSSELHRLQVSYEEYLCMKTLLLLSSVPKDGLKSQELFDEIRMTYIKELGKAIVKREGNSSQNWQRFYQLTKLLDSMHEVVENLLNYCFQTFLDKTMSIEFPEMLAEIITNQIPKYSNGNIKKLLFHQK
In words: Human glucocorticoid receptor (GR) fluorescence polarisation (FP) binding assay. Conditions: human recombinant GR, fluorescence polarisation binding assay; read-out: GR binding. In a few lines:
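Competition fluorescence polarisation: 0.5 nM GS Red labelled glucocorticoid and 1 nM recombinant human GR with 8-point half-log compound series, 1% DMSO, 4 h room temperature, potassium phosphate pH 7.4 buffer with molybdate, EDTA, DTT. Affinity derived from the drop in polarisation, normalised to blank wells.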

In experiment [1] the test system is induction of TAT by dexamethasone in HepG2 cells. The experiment can be described thus: HepG2 tyrosine aminotransferase (TAT) assay. The format is cell-based, human. Conditions: HepG2 cells, challenge of 100 nM dexamethasone; Ki from IC50 by Cheng and Prusoff equation.

In the case of `Cc1cnc(C(=O)[C@]23Cc4cnn(-c5ccc(F)cc5)c4C=C2CCN(S(=O)(=O)c2ccc(Cl)c(F)c2)C3)s1` [Example 12R, (R)-(6-((4-chloro-3-fluorophenyl)sulfonyl)-1-(4-fluorophenyl)-4,4a,5,6,7,8-hexahydro-1H-pyrazolo[3,4-g]isoquinolin-4a-yl)(5-methylthiazol-2-yl)methanone], the pKi was 9.00 to 9.30 at human recombinant GR and above 7.70 in experiment [1].
For the molecule `Cc1cnc(C(=O)[C@]23Cc4cnn(-c5ccc(F)cc5)c4C=C2CCN(S(=O)(=O)c2ccn(C)n2)C3)s1` [Example 12S, (R)-(1-(4-fluorophenyl)-6-((1-methyl-1H-pyrazol-3-yl)sulfonyl)-4,4a,5,6,7,8-hexahydro-1H-pyrazolo[3,4-g]isoquinolin-4a-yl)(5-methylthiazol-2-yl)methanone], the pKi is above 9.30 at human recombinant GR and above 7.70 in experiment [1].
In the case of `Cc1cnc(C(=O)[C@]23Cc4cnn(-c5ccc(F)cc5)c4C=C2CCN(S(=O)(=O)c2cnn(C)c2)C3)s1` [Example 12T, (R)-(1-(4-fluorophenyl)-6-((1-methyl-1H-pyrazol-4-yl)sulfonyl)-4,4a,5,6,7,8-hexahydro-1H-pyrazolo[3,4-g]isoquinolin-4a-yl)(5-methylthiazol-2-yl)methanone], the pKi is above 9.30 on human recombinant GR and above 7.70 in experiment [1].
On to `Cc1cc(S(=O)(=O)N2CCC3=Cc4c(cnn4-c4ccc(F)cc4)C[C@]3(C(=O)c3ncc(C)s3)C2)n(C)n1` [Example 12U, (R)-(6-((1,3-dimethyl-1H-pyrazol-5-yl)sulfonyl)-1-(4-fluorophenyl)-4,4a,5,6,7,8-hexahydro-1H-pyrazolo[3,4-g]isoquinolin-4a-yl)(5-methylthiazol-2-yl)methanone], for which the pKi on human recombinant GR is below 9.00; in experiment [1] it was 7.00 to 7.70.
The matching figures for `Cc1cnc(C(=O)[C@]23Cc4cnn(-c5ccc(F)cc5)c4C=C2CCN(S(=O)(=O)c2ccnn2C)C3)s1` [Example 12V, (R)-(1-(4-fluorophenyl)-6-((1-methyl-1H-pyrazol-5-yl)sulfonyl)-4,4a,5,6,7,8-hexahydro-1H-pyrazolo[3,4-g]isoquinolin-4a-yl)(5-methylthiazol-2-yl)methanone]: 9.00 to 9.30 and 7.00 to 7.70.
In the same order, the values of `CCn1nccc1S(=O)(=O)N1CCC2=Cc3c(cnn3-c3ccc(F)cc3)C[C@]2(C(=O)c2nccs2)C1` [Example 12W, (R)-(6-((1-ethyl-1H-pyrazol-5-yl)sulfonyl)-1-(4-fluorophenyl)-4,4a,5,6,7,8-hexahydro-1H-pyrazolo[3,4-g]isoquinolin-4a-yl)(thiazol-2-yl)methanone] are below 9.00 and at most 7.00.
As for `CCn1cc(S(=O)(=O)N2CCC3=Cc4c(cnn4-c4ccc(F)cc4)C[C@]3(C(=O)c3nccs3)C2)cn1` [Example 12X, (R)-(6-((1-ethyl-1H-pyrazol-4-yl)sulfonyl)-1-(4-fluorophenyl)-4,4a,5,6,7,8-hexahydro-1H-pyrazolo[3,4-g]isoquinolin-4a-yl)(thiazol-2-yl)methanone], the pKi on human recombinant GR was above 9.30; in experiment [1], 7.00 to 7.70.
The matching figures for `CCCn1cc(S(=O)(=O)N2CCC3=Cc4c(cnn4-c4ccc(F)cc4)C[C@]3(C(=O)c3nccs3)C2)cn1` [Example 12Y, (R)-(1-(4-fluorophenyl)-6-((1-propyl-1H-pyrazol-4-yl)sulfonyl)-4,4a,5,6,7,8-hexahydro-1H-pyrazolo[3,4-g]isoquinolin-4a-yl)(thiazol-2-yl)methanone]: above 9.30 and above 7.70.
The matching figures for `Cc1ccc(S(=O)(=O)N2CCC3=Cc4c(cnn4-c4ccc(F)cc4)C[C@]3(C(=O)c3nccn3C)C2)cc1` [Example 13, (R)-(1-(4-fluorophenyl)-6-tosyl-4,4a,5,6,7,8-hexahydro-1H-pyrazolo [3,4-g]isoquinolin-4a-yl)(1-methyl-1H-imidazol-2-yl)methanone]: 9.00 to 9.30 and 7.00 to 7.70.
The matching figures for `Cc1cccc(S(=O)(=O)N2CCC3=Cc4c(cnn4-c4ccc(F)cc4)C[C@]3(C(=O)c3nccn3C)C2)c1` [Example 13A, (R)-(1-(4-fluorophenyl)-6-(m-tolylsulfonyl)-4,4a,5,6,7,8-hexahydro-1H-pyrazolo [3,4-g]isoquinolin-4a-yl)(1-methyl-1H-imidazol-2-yl)methanone]: above 9.30 and 7.00 to 7.70.
On to `CN(C)C(=O)c1cccc(S(=O)(=O)N2CCC3=Cc4c(cnn4-c4ccc(F)cc4)C[C@]3(C(=O)c3ccccn3)C2)c1` [Example 14, (R)-3-((1-(4-fluorophenyl)-4a-picolinoyl-4a,5,7,8-tetrahydro-1H-pyrazolo[3,4-g]isoquinolin-6 (4H)-yl)sulfonyl)-N,N-dimethylbenzamide], for which the pKi was above 9.30 on human recombinant GR and 7.00 to 7.70 in experiment [1].
The matching figures for `CCn1cc(S(=O)(=O)N2CCC3=Cc4c(cnn4-c4ccc(F)cc4)C[C@]3(C(=O)c3cc(C(F)(F)F)ccn3)C2)cn1` [Example 15, (R)-(6-((1-ethyl-1H-pyrazol-4-yl)sulfonyl)-1-(4-fluorophenyl)-4,4a,5,6,7,8-hexahydro-1H-pyrazolo[3,4-g]isoquinolin-4a-yl)(4-(trifluoromethyl)pyridin-2-yl)methanone]: above 9.30 and above 7.70.
In the case of `O=C(c1ccccn1)[C@]12Cc3cnn(-c4cccnc4)c3C=C1CCN(S(=O)(=O)c1cccc(C(F)(F)F)c1)C2` [Example 15A, (R)-pyridin-2-yl(1-(pyridin-3-yl)-6-((3-(trifluoromethyl)phenyl)sulfonyl)-4,4a,5,6,7,8-hexahydro-1H-pyrazolo[3,4-g]isoquinolin-4a-yl)methanone], the pKi at human recombinant GR is above 9.30; in experiment [1], 7.00 to 7.70.
The matching figures for `O=C(c1ccccn1)[C@]12Cc3cnn(-c4ccccc4)c3C=C1CCN(S(=O)(=O)c1ccc(Cl)c(Cl)c1)C2` [Example 15B, (R)-(6-((3,4-dichlorophenyl)sulfonyl)-1-phenyl-4,4a,5,6,7,8-hexahydro-1H-pyrazolo[3,4-g]isoquinolin-4a-yl)(pyridin-2-yl)methanone]: above 9.30 and above 7.70.
The matching figures for `O=C(c1ccccn1)[C@]12Cc3cnn(-c4ccc(F)c(F)c4)c3C=C1CCN(S(=O)(=O)c1ccc(Cl)c(Cl)c1)C2` [Example 15C, (R)-(6-((3,4-dichlorophenyl)sulfonyl)-1-(3,4-difluorophenyl)-4,4a,5,6,7,8-hexahydro-1H-pyrazolo[3,4-g]isoquinolin-4a-yl)(pyridin-2-yl)methanone]: above 9.30 and 7.00 to 7.70.
In the same order, the values of `COc1c(F)cc(S(=O)(=O)N2CCC3=Cc4c(cnn4-c4ccc(F)cc4)C[C@]3(C(=O)c3ccccn3)C2)cc1F` [Example 15D, (R)-(6-((3,5-difluoro-4-methoxyphenyl)sulfonyl)-1-(4-fluorophenyl)-4,4a,5,6,7,8-hexahydro-1H-pyrazolo[3,4-g]isoquinolin-4a-yl)(pyridin-2-yl)methanone] are 9.00 to 9.30 and above 7.70.
In the case of `CN(C)c1ccc(S(=O)(=O)N2CCC3=Cc4c(cnn4-c4ccc(F)cc4)C[C@]3(C(=O)c3ccccn3)C2)cn1` [Example 16, (R)-(6-((6-(dimethylamino)pyridin-3-yl)sulfonyl)-1-(4-fluorophenyl)-4,4a,5,6,7,8-hexahydro-1H-pyrazolo[3,4-g]isoquinolin-4a-yl)(pyridin-2-yl)methanone], the pKi was above 9.30 on human recombinant GR and 7.00 to 7.70 in experiment [1].
Turning to `Cn1cc(S(=O)(=O)N2CCC3=Cc4c(cnn4-c4ccc(F)cc4)C[C@]3(C(=O)c3cc(C(F)(F)F)ccn3)C2)cn1` [Example 18, (R)-(1-(4-fluorophenyl)-6-((1-methyl-1H-pyrazol-4-yl)sulfonyl)-4,4a,5,6,7,8-hexahydro-1H-pyrazolo[3,4-g]isoquinolin-4a-yl)(4-(trifluoromethyl)pyridin-2-yl)methanone], the pKi is above 9.30 on human recombinant GR and above 7.70 in experiment [1].
`O=C(c1cscn1)[C@]12Cc3cnn(-c4ccc(F)cc4)c3C=C1CCN(S(=O)(=O)c1ccc(Cl)c(Cl)c1)C2` [Example 19, (R)-(6-((3,4-dichlorophenyl)sulfonyl)-1-(4-fluorophenyl)-4,4a,5,6,7,8-hexahydro-1H-pyrazolo[3,4-g]isoquinolin-4a-yl)(thiazol-4-yl)methanone]: the pKi at human recombinant GR is above 9.30; in experiment [1] it was above 7.70.
